# Entries after “also recorded” stand apart in the source; their conditions may differ.
# Tests used:
# HPV18 [1] = assay: HPV18 initial amplification replication assay in U2OS cells (Southern Blot); type: cell-based; conditions: for IC50: 120 h, read-out: IC50 of HPV18 initial amplification; for inhibition of HPV18 initial amplification: HPV18 wt minicircle, 5 days, Southern Blot, relative to DMSO; for HPV18 replication after shRNA downregulation: 3 and 4 days after transfection, vs empty shRNA plasmid
# Excerpt: FIG. 2 Effect of the identified five compounds on HPV18 initial amplification. A: U2OS cells were transfected with HPV18 wt minicircle and grown in the presence of the compounds with indicated concentrations for 5 days. Genomic DNA was extracted, linearized, and digested with DpnI. HPV genome replication signals were detected using Southern Blot analyses and quantified with phosphoimager and expressed relative to vehicle control (DMSO). Approximate IC50 values are shown for each compound. Error-bars represent standard deviation from at least three independent experiment. B: U2OS cells were transfected with the expression vectors of HPV18 E1 and E2 proteins together with HPV18 URR (origin) minicircle plasmid. The cells were grown in the presence of the compounds with indicated concentrations for 24 or 48 hours. Genomic DNA was extracted, linearized and digested with DpnI. HPV URR replication signals were detected by Southern Blot analyses. DMSO serves as vehicle control and M 18URR serves as size marker.
# (§1) Replication assay. The U2OS or U2OS-EBNA1 cells were transfected with 2 ug of HPV18 minicircle genome and lug of oriP plasmid (only in case of U2OS-EBNA1 cells). All the compounds were added to the media immediately after the transfection and media was changed on the third day. Replication signals were detected with Southern Blot method. Briefly, genomic DNA was extracted 3 and 4 days after the transfection with sh_RNAs or with the use of ABT-888 and 5 days after for analyses of the effects of HPV inhibitors w/wo CPT. DNA was digested with BglI and DpnI for analyses of HPV18 replication and with BstXI, ScaI and DpnI for analyses of HPV18 and oriP replication simultaneously. 3 ug of DNA was resolved in agarose gel, transferred to a nylon membrane (Membrane Solutions LLC) and hybridized with specific radioactively labeled probes. Signals were detected and quantified with Typhoon Trio+ phosphoimager (GE Healthcare) and exposed on an X-ray film (AGFA).
# for compounds inhibiting initial amplification of HPV18 genome in U2OS cells. HT-screening was conducted with all the compounds in this library in 5 uM and 1 uM concentrations and it gave us 80 hits (approximately 5% of analyzed compounds). After validation of the hits on HPV18 wt genome, we found five compounds inhibiting initial amplification of HPV18 in U2OS cells (FIG. 1). To further characterize the compounds, we performed replication assay described in Example 1.
# HPV18 [2] = assay: Stable maintenance of HPV18 in U2OS #1.13 cells, subconfluent; type: cell-based; conditions: U2OS #1.13, subconfluent, 7 days; for HPV18 replication signal lost: compared to DMSO control
# Protocol: (§2) FIG. 3 Effect of compounds on stable maintenance and vegetative amplification of HPV18. A: U2OS #1.13 cells were grown in subconfluent conditions in the presence of the identified five compounds for 7 days. Genomic DNA was extracted, linearized and HPV replication signal was detected by Southern Blot and B: quantified by phosphoimager. C: U2OS #1.13 were seeded and grown for 5 days without splitting. On the 5th day indicated concentrations of compounds were added to the media and the cells were grown for additional 7 days without splitting. On the 12th day genomic DNA was extracted, linearized and HPV replication signal was detected by Southern Blot and D: quantified by phosphoimager. Error-bars represent standard deviations from at least two independent experiments.
# Our U2OScell-based system is suitable for studying all three replication stages of various HPV subtypes. Stable maintenance phase could be monitored by maintaining HPV-positive cells in subconfluent conditions. We used HPV18 positive monoclonal U2OS cell-line #1.13 with viral copy number ˜2000. We grew the #1.13 cells in the presence of various concentration of compounds in subconfluent conditions (cells were split every three days) for 7 days. HPV18 replication signal was detected by Southern blot analyses and quantified with phosphoimager. About 50% of the signal was lost in case of compound 82269 compared to the DMSO control (FIG. 3, panel A, compare lanes 4-6 with lane 15 and panel B).
# HPV18 [3] = assay: Vegetative amplification of HPV18 in U2OS #1.13 cells, confluent; type: cell-based; conditions: U2OS #1.13, confluent, compounds added on 5th day for additional 7 days
# Protocol: as §2
# If #1.13 is grown in confluent conditions for at least 5 days, vegetative amplification of HPV genome is turned on. We seeded equal amounts of cells onto plates and grew them for 5 days without splitting. On the 5th day various concentrations of compound were added and the cells were grown for additional 7 days (media was changed every two days throughout the experiment). HPV replication signal was detected by Southern Blot analyses and quantified with phosphoimager.
# HPV18 [4] = assay: HPV18 replication in U2OS-EBNA1 cells, compounds alone or with CPT; type: cell-based; conditions: 5 days; for synergistic effect together with CPT on HPV18 replication: U2OS-EBNA1, with 2 nM CPT
# Protocol: FIG. 5 Synergistic effect between Camptothecin (CPT) and the identified five compounds. U2OS-EBNA1 cells were transfected with HPV18 wt and oriP plasmids and grown in the presence of indicated concentrations of the compounds alone or together with 2 nM CPT for 5 days. Genomic DNA was extracted, linearized and digested with DpnI. Both HPV18 and oriP replication signals were detected with Southern Blot and quantified by phosphoimager. […] Error-bars represent standard deviations from at least three independent experiments.
# as §1
# Synergistic effect of Campthotecin (CPT) and HPV18 replication inhibitors. CPT is a Topoisomerase I inhibitor that stabilizes entrapped Top1cc complexes to DNA. Since Tdp1 is responsible for cleaving entrapped Top1cc complexes from DNA, synergistic effect between CPT and Tdp1 inhibitors occurs. In the experiments shown in FIG. 5 we used U2OS cells constitutively expressing Epstein Barr virus (EBV) EBNA1 protein—U2OS-EBNA1. These cells allow to monitor HPV and EBNA1 supported oriP plasmid replication simultaneously. […] U2OS-EBNA1 cells were cotransfected with HPV18 genome and oriP plasmid and the cells were grown in the presence of various concentrations of the identified HPV inhibitors alone or together with 2 nM of CPT for 5 days, DMSO was used as vehicle control.
# Tdp = Tdp (Homo sapiens, UniProt Q9NUW8); conditions: known from the literature; cited from earlier work
# PARP1 = assay: Western Blot of PARP1 after shRNA in U2OS cells; type: cell-based
# Excerpt: (§3) FIG. 4 Involvement of Tdp1 and PARP1 in HPV18 initial amplification. A: U2OS cells were transfected with HPV18 wt minicircle and sh_Tdp1 plasmid. Genomic DNA was extracted 3 and 4 days after the transfection, linearized and digested with DpnI. HPV replication signal was detected with Southern Blot analyses and B: quantified with phosphoimager. C: Western Blot analyses showing downregulation of Tdp1 protein by shRNA. D: U2OS cells were transfected with HPV18 wt minicircle and sh_PARP1 plasmid. HPV replication signal was detected with Southern Blot analyses and E: quantified with phosphoimager. F: Western Blot analyses showing downregulation of PARP1 protein by shRNA. G: U2OS cells were transfected with HPV18 wt minicircle and grown for 3 and 4 days in the presence of different concentrations of PARP1 inhibitor ABT-888. HPV replication signal was detected with Southern Blot analyses and H: quantified with phosphoimager. Error-bars represent standard deviations from at least three independent experiments.
# (§4) Western Blot. The cells were lysed with Laemmli buffer (4% SDS, 20% glycerol, 120 mM Tris-Cl (pH 6.8), and 200 mM DTT) and boiled for 10 minutes at 100° C. […] Tdp1 and PARP1 were detected with their specific antibodies from Santa Cruz Biotechnology: sc-365674 and sc-56197 respectively. Tubulin (used as loading control) was detected using Sigma Aldrich antibody T9026. […]
# Tdp1 = assay: Western Blot of Tdp1 after shRNA in U2OS cells; type: cell-based
# Excerpt: as §3, §4
# Chain of Tdp (Q9NUW8 whole entry): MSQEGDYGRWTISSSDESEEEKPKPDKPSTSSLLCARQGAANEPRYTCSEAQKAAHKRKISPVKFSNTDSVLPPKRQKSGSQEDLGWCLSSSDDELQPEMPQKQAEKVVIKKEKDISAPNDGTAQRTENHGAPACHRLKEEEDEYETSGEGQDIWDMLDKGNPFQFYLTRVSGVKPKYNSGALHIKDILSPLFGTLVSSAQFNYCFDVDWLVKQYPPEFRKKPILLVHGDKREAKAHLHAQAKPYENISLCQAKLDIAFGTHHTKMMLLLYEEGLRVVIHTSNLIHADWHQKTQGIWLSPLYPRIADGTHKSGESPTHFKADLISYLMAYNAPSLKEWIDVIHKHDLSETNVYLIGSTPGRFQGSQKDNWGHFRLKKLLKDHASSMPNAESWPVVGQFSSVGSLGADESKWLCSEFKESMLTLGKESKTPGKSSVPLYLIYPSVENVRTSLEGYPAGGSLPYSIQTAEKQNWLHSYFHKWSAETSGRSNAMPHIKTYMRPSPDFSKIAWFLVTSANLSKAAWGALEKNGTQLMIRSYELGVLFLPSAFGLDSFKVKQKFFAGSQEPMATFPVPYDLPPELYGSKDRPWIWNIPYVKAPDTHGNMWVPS
Molecule,IC50 (HPV18 [1]) [µM],inhibition of HPV18 initial amplification (HPV18 [1]),effect on stable maintenance of HPV18 (HPV18 [2]),HPV18 replication signal lost (HPV18 [2]),effect on vegetative amplification of HPV18 (HPV18 [3]),synergistic effect together with CPT on HPV18 replication (HPV18 [4]),other results
C[C@]12CC[C@H]3[C@H](CCC4=CC(=O)CC[C@@]43C)[C@@H]1CC[C@@H]2C(=O)COS(=O)(=O)c1ccc(Br)cc1 [NSC 88915],2.5 to 60,concentration-dependent inhibition,only inhibits stable maintenance phase,about 70%,did not have any effect,clear concentration dependent synergistic effect; also recorded: clear synergistic inhibition,Tdp inhibition (Tdp): known to inhibit Tdp
CC(=O)OC1CCC2(C)C(CCC3C2CC(=O)C2(C)C3CC(N3CC3)C2C(C)=O)C1 (stereo not drawn) [NSC 109128],2.5 to 60,concentration-dependent inhibition,clearly inhibit,about 70%,almost completely abolished amplification; also recorded: clearly inhibit,clear concentration dependent synergistic effect; also recorded: clear synergistic inhibition,–
CSc1ncc2[nH]c(C(O)c3ccccc3)nc2n1 (stereo not drawn) [NSC82269],2.5 to 60,concentration-dependent inhibition,clearly inhibit,About 50%,clear concentration-dependent inhibition; also recorded: clearly inhibit,no synergistic effect; also recorded: does not,–
"shRNA_PARP1: PARP1 shRNA plasmid, SEQ ID NO: 2, expression under RNA polymerase III promoter U6 (DNA GGACTCGCTCCGGATGGCCTTCAAGAGAGGCCATCCGGAGCGAGTCC) [reference compound]",–,–,–,–,–,–,HPV18 replication after shRNA downregulation (HPV18 [1]): inhibits HPV18 replication significantly; PARP1 expression (PARP1): decreased
Cc1cc(O)cc2c1[C@H]1CC[C@]3(C)C(=O)CC[C@H]3[C@H]1C=C2 [NSC 9782],2.5 to 60,concentration-dependent inhibition,no significant reduction in signal; also recorded: does not inhibit any of the later replication stages,–,did not have any effect; also recorded: does not inhibit any of the later replication stages,clear concentration dependent synergistic effect; also recorded: clear synergistic inhibition,–
"C[C@]1(c2nc3c(C(N)=O)cccc3[nH]2)CCCN1 [ABT-888, veliparib, reference compound]",–,–,–,–,–,–,"HPV18 replication in presence of PARP1 inhibitor (HPV18 [1]; 3 and 4 days, various concentrations, vs DMSO): HPV18 replication is decreased"
"shRNA_Tdp1: Tdp1 shRNA plasmid, SEQ ID NO: 1, expression under RNA polymerase III promoter U6 (DNA GCACGATCTCTCTGAAACAAACTCGAGTTTGTTTCAGAGAGATCGT) [reference compound]",–,–,–,–,–,–,HPV18 replication after shRNA downregulation (HPV18 [1]): clear decrease in HPV18 replication; Tdp1 expression (Tdp1): decreased significantly
"CC[C@@]1(O)C(=O)OCc2c1cc1n(c2=O)Cc2cc3ccccc3nc2-1 [CPT, Camptothecin, reference compound]",–,–,–,–,–,–,"HPV18 initial amplification, CPT alone (HPV18 [4]; U2OS-EBNA1, 2 nM): did not inhibit"
